US11339447B2, “System and method for determining Kareniticin sensitivity on cancer” (CROWN BIOSCIENCE, INC. (TAICANG), priority 2017, dated 2022)

Columns and labels:
PDX LU1215 = assay: karenitecin treatment of PDX model; type: in vivo; design: key to Response: responder: responded to karenitecin treatment (AUC<0.5 and TGI>0.8); non_responder: did not respond to karenitecin treatment (AUC>0.5 and TGI<0.6); conditions: karenitecin treatment for two weeks
Experimental: (§1) A cohort of 48 PDX models in 8 cancers were used in this study. Those models were subject to karenitecin treatment for two weeks. Both tumor growth inhibition (TGI) and median AUC (area under curve) ratio, a newly developed metric to evaluate drug efficacy, were calculated (Table 1). Those models can be divided into two categories according to TGI and median AUC ratio.

PDX ES0110 = assay: karenitecin treatment of PDX model; type: in vivo; design: key to Response: responder: responded to karenitecin treatment (AUC<0.5 and TGI>0.8); non_responder: did not respond to karenitecin treatment (AUC>0.5 and TGI<0.6); conditions: karenitecin treatment for two weeks
Experimental: as §1

PDX SA0271 = assay: karenitecin treatment of PDX model; type: in vivo; design: key to Response: responder: responded to karenitecin treatment (AUC<0.5 and TGI>0.8); non_responder: did not respond to karenitecin treatment (AUC>0.5 and TGI<0.6); conditions: karenitecin treatment for two weeks
Experimental: as §1

PDX GA0098 = assay: karenitecin treatment of PDX model; type: in vivo; design: key to Response: responder: responded to karenitecin treatment (AUC<0.5 and TGI>0.8); non_responder: did not respond to karenitecin treatment (AUC>0.5 and TGI<0.6); conditions: karenitecin treatment for two weeks
Experimental: as §1

PDX CR3310 = assay: karenitecin treatment of PDX model; type: in vivo; design: key to Response: responder: responded to karenitecin treatment (AUC<0.5 and TGI>0.8); non_responder: did not respond to karenitecin treatment (AUC>0.5 and TGI<0.6); conditions: karenitecin treatment for two weeks
Experimental: as §1

PDX LU0330 = assay: karenitecin treatment of PDX model; type: in vivo; design: key to Response: responder: responded to karenitecin treatment (AUC<0.5 and TGI>0.8); non_responder: did not respond to karenitecin treatment (AUC>0.5 and TGI<0.6); conditions: karenitecin treatment for two weeks
Experimental: as §1

PDX LU2071 = assay: karenitecin treatment of PDX model; type: in vivo; design: key to Response: responder: responded to karenitecin treatment (AUC<0.5 and TGI>0.8); non_responder: did not respond to karenitecin treatment (AUC>0.5 and TGI<0.6); conditions: karenitecin treatment for two weeks
Experimental: as §1

PDX CR2545 = assay: karenitecin treatment of PDX model; type: in vivo; design: key to Response: responder: responded to karenitecin treatment (AUC<0.5 and TGI>0.8); non_responder: did not respond to karenitecin treatment (AUC>0.5 and TGI<0.6); conditions: karenitecin treatment for two weeks
Experimental: as §1

PDX GA3109 = assay: karenitecin treatment of PDX model; type: in vivo; design: key to Response: responder: responded to karenitecin treatment (AUC<0.5 and TGI>0.8); non_responder: did not respond to karenitecin treatment (AUC>0.5 and TGI<0.6); conditions: karenitecin treatment for two weeks
Experimental: as §1

PDX LU6429 = assay: karenitecin treatment of PDX model; type: in vivo; design: key to Response: responder: responded to karenitecin treatment (AUC<0.5 and TGI>0.8); non_responder: did not respond to karenitecin treatment (AUC>0.5 and TGI<0.6); conditions: karenitecin treatment for two weeks
Experimental: as §1

PDX CR3079 = assay: karenitecin treatment of PDX model; type: in vivo; design: key to Response: responder: responded to karenitecin treatment (AUC<0.5 and TGI>0.8); non_responder: did not respond to karenitecin treatment (AUC>0.5 and TGI<0.6); conditions: karenitecin treatment for two weeks
Experimental: as §1

PDX OV0273 = assay: karenitecin treatment of PDX model; type: in vivo; design: key to Response: responder: responded to karenitecin treatment (AUC<0.5 and TGI>0.8); non_responder: did not respond to karenitecin treatment (AUC>0.5 and TGI<0.6); conditions: karenitecin treatment for two weeks
Experimental: as §1

PDX GA0087 = assay: karenitecin treatment of PDX model; type: in vivo; design: key to Response: responder: responded to karenitecin treatment (AUC<0.5 and TGI>0.8); non_responder: did not respond to karenitecin treatment (AUC>0.5 and TGI<0.6); conditions: karenitecin treatment for two weeks
Experimental: as §1

PDX LU1868 = assay: karenitecin treatment of PDX model; type: in vivo; design: key to Response: responder: responded to karenitecin treatment (AUC<0.5 and TGI>0.8); non_responder: did not respond to karenitecin treatment (AUC>0.5 and TGI<0.6); conditions: karenitecin treatment for two weeks
Experimental: as §1

PDX LU1542 = assay: karenitecin treatment of PDX model; type: in vivo; design: key to Response: responder: responded to karenitecin treatment (AUC<0.5 and TGI>0.8); non_responder: did not respond to karenitecin treatment (AUC>0.5 and TGI<0.6); conditions: karenitecin treatment for two weeks
Experimental: as §1

PDX CR2528 = assay: karenitecin treatment of PDX model; type: in vivo; design: key to Response: responder: responded to karenitecin treatment (AUC<0.5 and TGI>0.8); non_responder: did not respond to karenitecin treatment (AUC>0.5 and TGI<0.6); conditions: karenitecin treatment for two weeks
Experimental: as §1

[1] = system: extensively pretreated ovarian cancer; conditions: previous clinical trial (Kavanagh 2008); cited from earlier work
[2] = prior studies, cited from earlier work
[3] = system: 48 PDX models in 8 cancers; assay: karenitecin treatment of a cohort of 48 PDX models; type: in vivo; conditions: number of the 48 PDX models in 8 cancers; treatment for two weeks
Experimental: as §1

SMILES: CC[C@@]1(O)C(=O)OCc2c1cc1n(c2=O)Cc2c-1nc1ccccc1c2CC[Si](C)(C)C [karenitecin]
- Median AUC ratio (PDX LU1215): 0.232
- Response (PDX LU1215): responder
- TGI (PDX LU1215): 1.006
- Median AUC ratio (PDX ES0110): 0.344
- Response (PDX ES0110): responder
- TGI (PDX ES0110): 1.010
- Median AUC ratio (PDX SA0271): −0.133
- Response (PDX SA0271): responder
- TGI (PDX SA0271): 1.104
- Median AUC ratio (PDX GA0098): 0.512
- Response (PDX GA0098): non_responder
- TGI (PDX GA0098): 0.482
- Median AUC ratio (PDX CR3310): −0.926
- Response (PDX CR3310): responder
- TGI (PDX CR3310): 1.727
- Median AUC ratio (PDX LU0330): 1.094
- Response (PDX LU0330): non_responder
- TGI (PDX LU0330): 0.000
- Median AUC ratio (PDX LU2071): 0.037
- Response (PDX LU2071): responder
- TGI (PDX LU2071): 1.099
- Median AUC ratio (PDX CR2545): 0.597
- Response (PDX CR2545): non_responder
- TGI (PDX CR2545): 0.379
- Median AUC ratio (PDX GA3109): 0.137
- Response (PDX GA3109): responder
- TGI (PDX GA3109): 1.046
- Median AUC ratio (PDX LU6429): 1.106
- Response (PDX LU6429): non_responder
- TGI (PDX LU6429): 0.241
- Median AUC ratio (PDX CR3079): 0.706
- Response (PDX CR3079): non_responder
- TGI (PDX CR3079): 0.381
- Median AUC ratio (PDX OV0273): −0.092
- Response (PDX OV0273): responder
- TGI (PDX OV0273): 1.052
- Median AUC ratio (PDX GA0087): −1.097
- Response (PDX GA0087): responder
- TGI (PDX GA0087): 1.316
- Median AUC ratio (PDX LU1868): 0.915
- Response (PDX LU1868): non_responder
- TGI (PDX LU1868): 0.534
- Median AUC ratio (PDX LU1542): −3.610
- Response (PDX LU1542): responder
- TGI (PDX LU1542): 1.195
- Median AUC ratio (PDX CR2528): 1.014
- Response (PDX CR2528): non_responder
- TGI (PDX CR2528): 0.519
- response rate [1]: low
- incidence of severe diarrhea ([2]; compared with irinotecan): lower
- incidence and severity of anemia, neutropenia and thrombocytopenia ([2]; compared with topotecan): lower
- models did not respond to karenitecin treatment (AUC>0.5 and TGI<0.6) [3]: 17
- models responded to karenitecin treatment (AUC<0.5 and TGI>0.8) [3]: Thirty-one
